Assay results as given in ChEMBL document CHEMBL1201862, “PubChem BioAssay data set” (2004).
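Exposure lasted 48 hours, with cells grown in 96-well plates and compounds tested at five concentrations. At the GI50, growth is halved.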 Active and inactive are the calls of the source. Rule as the data show it: active = GI50 up to about 1.1 µM and inactive = higher.

Legend:
Experiment in all cases: NCI anticancer screen, dose series, 48 h
BT-549 = test system: BT-549
CCRF-CEM = test system: CCRF-CEM
DU-145 = test system: DU-145
HCT-116 = test system: HCT-116
HOP-92 = test system: HOP-92
IGROV-1 = test system: IGROV-1
K562 = test system: K562
LOX IMVI = test system: LOX IMVI
MCF7 = test system: MCF7
MDA-N = test system: MDA-N
MOLT-4 = test system: MOLT-4
NCI-H460 = test system: NCI-H460
OVCAR-4 = test system: OVCAR-4
RPMI-8226 = test system: RPMI-8226
SF-268 = test system: SF-268
SF-295 = test system: SF-295
SK-MEL-28 = test system: SK-MEL-28
SW-620 = test system: SW-620
UACC-62 = test system: UACC-62
UO-31 = test system: UO-31

## Cc1c(F)c(N)c2c(=O)cc(-c3ccc(N)c(F)c3)oc2c1F [AMINOFLAVONE]
BT-549
  GI50: 17.5 µM (inactive)
CCRF-CEM
  GI50: 28 µM (inactive)
DU-145
  GI50: 26.3 µM (inactive)
HCT-116
  GI50: 12.1 µM (inactive)
HOP-92
  GI50: 23 µM (inactive)
IGROV-1
  GI50: 72.3 nM (active)
K562
  GI50: 279 nM (active)
LOX IMVI
  GI50: 21.3 µM (inactive)
MCF7
  GI50: 15.6 nM (active)
MDA-N
  GI50: 29.4 µM (inactive)
MOLT-4
  GI50: 46.9 µM (inactive)
NCI-H460
  GI50: 199 nM (active)
OVCAR-4
  GI50: 18.8 µM (inactive)
RPMI-8226
  GI50: 14.9 µM (inactive)
SF-268
  GI50: 23.1 µM (inactive)
SF-295
  GI50: 15.6 µM (inactive)
SK-MEL-28
  GI50: 45.1 µM (inactive)
SW-620
  GI50: 30.5 nM (active)
UACC-62
  GI50: 4.73 µM (inactive)
UO-31
  GI50: 5.33 µM (inactive)
